Test results from patent US20240180890A1, “VACCINE ADJUVANT” (Celleron Therapeutics Limited, priority 2021, published 2024).

How the values were obtained:
[1] = system: peptide-specific CD8 T cells; test: Immunogenicity experiment with CXD101 and peptide vaccine; assay type: in vivo, C57BL/6 mice
Method: C57BL/6 mice were treated with orally administrated CXD101 at 10 mg/kg for 14 days (5 days on/2 days off) and intravenous D8V and 18V peptides vaccination (days 1 and 7) with respect to vehicle only control; n=5 per group; • B) 18V-peptide specific CD8 positive T cells with tetramers (i) and general T cell activation (CD8+ CD44+ CD62L− tetramer positive T cells) measurements by flow cytometry; n=5; • C) Representative examples of immunohistochemical staining of H3AcK9 in lungs (i) collected from C57BL/6 mice at 14 days treated with 25 mg/kg CXD101 and non-treated control. Original magnification: 20×, scale bar, 50 μm; and 63×; scale bar, 16 μm. n=3; (ii) results were quantified by ImageJ Fiji software and normalised optical density was presented as a mean+/−SD. […]
Twenty C57BL/6 female mice (5 mice per group: control; CXD101 treated; peptide vaccinated; CXD101/peptide vaccinated) where 10 mice were vaccinated intravenously with 30 μg of peptides encoding CD8 T cell epitopes from the beta-galactosidase gene, βgale96-103 (DAPIYTNV; D8V), the βgal497-504 (ICPMYARV; 18V) (Genscript) with 30 μg polylC (InVivogen) and 25 μg anti-CD40 (2bScientific). […] Mice were bled at day 6 and 13 post prime and the levels of peptide-specific CD8 T cells measured by detection with tetramers followed by flow cytometry.

HDAC Class II = HDAC Class II inhibition; assay type: biochemical; settings: no activity against HDAC Class II
physchem = settings: 25 °C, aqueous buffer

## Cc1nn(C)cc1CN1CCC(c2ccc(C(=O)Nc3ccccc3N)cc2)CC1 [CXD101/zabinostat, N-(2-aminophenyl)-4-(1-[(1,3-dimethyl-1H-pyrazol-4-yl)methyl]piperidin-4yl)benzamide]
[1]; C57BL/6 mice, oral CXD101, intravenous D8V and 18V peptides vaccination, tetramers and flow cytometry (FIG. 7)
  immunogenicity against a peptide-based vaccine: induces immunogenicity against a peptide-based vaccine
[1]; normal healthy cells and animals
  immune response to an immunogenic protein: potentiates the immune response
HDAC Class II
  IC50: ≥ 2.5 µM
physchem
  solubility: ≥ 500 µg/mL
